Reference: US12492173B2, “Herbicidal substituted N-tetrazolyl aryl carboxamides” (Bayer Aktiengesellschaft, priority 2019, dated 2025)

How the values were obtained:
Assay type in all cases: in vivo
Amaranthus retroflexus = test: Post-emergence herbicidal action, AMARE; design: key: % herbicidal action vs untreated; 100 = plants died, 0 = like control
In short: (§1)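 Visual % damage versus untreated plants, scored about 3 weeks post-spray (100% = dead, 0% = like control). Greenhouse plants in sandy loam were treated at one-leaf stage with WP/EC formulations in water at 600 to 800 l/ha plus 0.2% wetting agent.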

Viola tricolor = test: Post-emergence herbicidal action, VIOTR; design: key: % herbicidal action vs untreated; 100 = plants died, 0 = like control
In short: as §1

Abutilon theophrasti = test: Pre-emergence herbicidal action, ABUTH; design: key to Herbicidal action against ABUTH: % activity: 100 = plants have died, 0 = like control plants; conditions: for herbicidal action ABUTH / herbicidal activity ABUTH: dosage 320 g/ha; for herbicidal activity ABUTH: scored visually after 3 weeks vs untreated controls (100% = plants have died)
In short: (§2)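 Greenhouse pre-emergence test: formulated compound (WP or EC) applied in water to the soil covering sown seeds, 600–800 l/ha, 0.2% wetting agent. Scored visually in percent at 3 weeks versus untreated plants.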

Veronica persica = test: Pre-emergence herbicidal action, VERPE; design: key to Herbicidal action against VERPE: % activity: 100 = plants have died, 0 = like control plants; conditions: for herbicidal action VERPE / herbicidal activity VERPE: dosage 320 g/ha; for herbicidal activity VERPE: scored visually after 3 weeks vs untreated controls (100% = plants have died)
In short: as §2

Stellaria media = test: Post-emergence herbicidal action, STEME; design: key: % herbicidal action vs untreated; 100 = plants died, 0 = like control
In short: as §1

Polygonum convolvulus = test: Post-emergence herbicidal action, POLCO
In short: as §1

[1] = comparative experiment, 20 g of a.i./ha
[2] = comparative experiment, post-emergence, 5 g of a.i./ha

Row | SMILES | herbicidal action AMARE (Amaranthus retroflexus; Dosage 80 g/ha) | herbicidal action VIOTR (Viola tricolor; Dosage 80 g/ha) | herbicidal action ABUTH (Abutilon theophrasti) [%] | herbicidal action VERPE (Veronica persica) [%] | herbicidal action STEME (Stellaria media; Dosage 80 g/ha) | herbicidal activity ABUTH (Abutilon theophrasti) [%] | herbicidal activity VERPE (Veronica persica) [%] | further results
1 | Cc1ccc(C(=O)Nc2nnnn2C)c(Cl)c1C[S+](C)[O-] (racemic) [Example 1-288] | 100 | 100 | 90 | 90 | 100 | – | – | –
2 | CC[S+]([O-])Cc1c(C(F)(F)F)ccc(C(=O)Nc2nnnn2C)c1Cl (racemic) [Example 1-300] | – | – | – | – | – | 100 | 100 | herbicidal action AMARE (Amaranthus retroflexus; post-emergence, dosage 80 g/ha): 100%; herbicidal action POLCO (Polygonum convolvulus; post-emergence, dosage 80 g/ha): 100%; herbicidal action VIOTR (Viola tricolor; post-emergence, dosage 80 g/ha): 100%; herbicidal action STEME (Stellaria media; post-emergence, dosage 80 g/ha): 100%
3 | Cn1nnnc1NC(=O)c1ccc(I)c(C[S+](C)[O-])c1Cl (racemic) [Example 1-363] | – | – | – | – | – | 100 | 100 | herbicidal action AMARE (Amaranthus retroflexus; post-emergence, dosage 80 g/ha): 100%; herbicidal action VIOTR (Viola tricolor; post-emergence, dosage 80 g/ha): 100%; Herbicidal action against ABUTH (Abutilon theophrasti; [1]): 100; herbicidal action STEME (Stellaria media; post-emergence, dosage 80 g/ha): 100%
4 | Cc1c(C(=O)Nc2nnnn2C)ccc(C(F)F)c1C[S+](C)[O-] (stereo not shown) [Example 1-108] | 100 | 100 | 100 | 90 | 100 | – | – | –
5 | COc1c(C(=O)Nc2nnnn2C)ccc(C(F)(F)F)c1C[S+](C)[O-] (stereo not shown) [Example 1-135] | 100 | 90 | 100 | 100 | 90 | – | – | –
6 | CCSCc1c(C(F)(F)F)ccc(C(=O)Nc2nnnn2C)c1SCC [Example 1-182] | 90 | 100 | – | – | 100 | 100 | 100 | Herbicidal action against AMARE (Amaranthus retroflexus; [2]): 80; Herbicidal action against VIOTR (Viola tricolor; [2]): 90; Herbicidal action against VERPE (Veronica persica; [1]): 90; Herbicidal action against STEME (Stellaria media; [2]): 90
7 | CSCc1c(C)ccc(C(=O)Nc2nnnn2C)c1Cl [Example 1-287] | 100 | 100 | 100 | 100 | 100 | – | – | –
8 | Cn1nnnc1NC(=O)c1ccc(C(F)(F)F)c(CSCC(F)(F)F)c1Cl [Example 1-311] | 100 | 100 | – | – | 100 | 100 | 100 | –
9 | CCS(=O)(=O)Cc1c(C(F)F)ccc(C(=O)Nc2nnnn2C)c1Cl [Example 1-325] | – | 100 | – | – | 100 | 100 | 100 | herbicidal action POLCO (Polygonum convolvulus; Dosage 80 g/ha): 90
10 | CSCc1c(Cl)ccc(C(=O)Nc2nnnn2C)c1Cl [Example 1-559] | – | – | 100 | 90 | – | – | – | herbicidal action AMARE (Amaranthus retroflexus; post-emergence, dosage 80 g/ha): 100%; herbicidal action VIOTR (Viola tricolor; post-emergence, dosage 80 g/ha): 100%; herbicidal action STEME (Stellaria media; post-emergence, dosage 80 g/ha): 100%
11 | CCn1nnnc1NC(=O)c1ccc(C(F)(F)F)c(CS(=O)(=O)CC)c1C [Example 2-88] | 90 | 100 | 100 | 100 | 100 | – | – | –
12 | CCn1nnnc1NC(=O)c1ccc(C(F)F)c(C[S+](C)[O-])c1C (stereo not shown) [Example 2-108] | 100 | 100 | 100 | 100 | 100 | – | – | –
13 | CCn1nnnc1NC(=O)c1ccc(S(C)(=O)=O)c(CS(C)(=O)=O)c1Cl [Example 2-280] | – | – | 100 | 100 | – | – | – | Herbicidal action against AMARE (Amaranthus retroflexus; post-emergence, dosage 80 g/ha): 90; Herbicidal action against VIOTR (Viola tricolor; post-emergence, dosage 80 g/ha): 90; Herbicidal action against STEME (Stellaria media; post-emergence, dosage 80 g/ha): 100
14 | CCCn1nnnc1NC(=O)c1ccc(S(C)(=O)=O)c(CSC)c1C [Example 3-37] | 100 | 100 | 80 | 100 | 100 | – | – | –
15 | CCCn1nnnc1NC(=O)c1ccc(S(C)(=O)=O)c(CS(C)(=O)=O)c1C [Example 3-39] | 100 | 100 | 100 | 100 | 90 | – | – | –
16 | CCCn1nnnc1NC(=O)c1ccc(C(F)(F)F)c(CSCC)c1C [Example 3-86] | – | 100 | 100 | 100 | 100 | – | – | herbicidal action POLCO (Polygonum convolvulus; Dosage 80 g/ha): 80
17 | CCCn1nnnc1NC(=O)c1ccc(C(F)(F)F)c(C[S+](C)[O-])c1OC (stereo not shown) [Example 3-135] | 100 | 100 | 100 | – | 100 | – | – | herbicidal action POLCO (Polygonum convolvulus; Dosage 80 g/ha): 100
18 | CCCn1nnnc1NC(=O)c1ccc(C(F)(F)F)c(CS(=O)(=O)CC)c1Cl [Example 3-301] | – | 100 | 100 | 100 | 100 | – | – | herbicidal action POLCO (Polygonum convolvulus; Dosage 80 g/ha): 100
19 | C=CCSCc1c(C(F)(F)F)ccc(C(=O)Nc2nnnn2CCC)c1Cl [Example 3-308] | 100 | 80 | – | – | 100 | 100 | 100 | –
20 | CCCn1nnnc1NC(=O)c1ccc(C(F)F)c(CS(C)(=O)=O)c1Cl [Example 3-322] | 90 | – | – | – | 100 | 100 | 100 | herbicidal action POLCO (Polygonum convolvulus; Dosage 80 g/ha): 80
21 | CCCn1nnnc1NC(=O)c1ccc(C(F)F)c(CS(=O)(=O)CC)c1Cl [Example 3-325] | – | 100 | – | – | 100 | 100 | – | –
